Results from paper PMC10745768, “Stereoselective Synthesis and Antiproliferative Activity of Steviol-Based Diterpene 1,3-Aminoalcohol Regioisomers” (Molecules, 2023).

How the values were obtained:
[1] = system: MCF-7 cells; test: MTT antiproliferative assay, MCF-7; type: cell-based; conditions: Homo sapiens, MCF7, 72 h, read-out: Growth inhibition (%) ± SEM; for inhibition at 10 µM: MCF-7, 10 μM; for inhibition at 30 µM: MCF-7, 30 μM
Description: (§1) The in vitro anticancer effects of the presented compounds were assessed using the standard MTT [3-(4,5-dimethylthiazol2-yl)-2,5-diphenyltetrazolium bromide] assay on the following human cancer cell lines: cervical (HeLa and SiHa), breast (MCF-7 and MDA-MB-231) and ovarian cancer (A2780). The selectivity of the tested compounds was determined on murine embryonal fibroblast cells (NIH/3T3). The utilised cell lines were purchased from the European Collection of Cell Cultures (Salisbury, UK). The cells were cultivated in Eagle’s minimal essential medium supplemented with 10% fetal bovine serum, 1% non-essential amino acids and 1% antibiotic-antimycotic complex (penicillin, streptomycin, amphotericin B) at 37 °C in a humidified atmosphere containing 5% CO2. All media and supplements were purchased from Lonza Group Ltd. (Basel, Switzerland). The cancer cells were seeded into 96-well plates (5000 cells/well) and incubated overnight, and the test compounds were applied in two different concentrations (10 µM and 30 µM) and incubated for another 72 h under cell-culturing conditions. […] After 72 h, 20 µL of the 5 mg/mL MTT solution was added to each well, and the plates were incubated for 4 h. The medium was removed, and the formazan crystals produced by the mitochondrial activity were dissolved in dimethyl sulfoxide (DMSO) via shaking at 37 °C for 30 min. The absorbances were measured at 545 nm using a microplate reader (SPECTROStar Nano, BMG Labtech, Offenburg, Germany). The reference agent was cisplatin, which is a widely used cytotoxic agent. The IC50 values were calculated using sigmoid curve fitting. Two independent experiments were performed with five parallel wells for each condition. Calculations were performed using the GraphPad Prism 9 software (GraphPad Software Inc., San Diego, CA, USA).

[2] = system: A2780 cells; test: MTT antiproliferative assay, A2780; type: cell-based; conditions: Homo sapiens, 72 h, read-out: Growth inhibition (%) ± SEM; for inhibition at 10 µM: A2780, 10 μM; for inhibition at 30 µM: A2780, 30 μM
Description: as §1

[3] = system: MDA-MB-231 cells; test: MTT antiproliferative assay, MDA-MB-231; type: cell-based; conditions: Homo sapiens, 72 h, read-out: Growth inhibition (%) ± SEM; for inhibition at 10 µM: MDA-MB-231, 10 μM; for inhibition at 30 µM: MDA-MB-231, 30 μM
Description: as §1

[4] = system: SiHa cells; test: MTT antiproliferative assay, SiHa; type: cell-based; conditions: Homo sapiens, 72 h, read-out: Growth inhibition (%) ± SEM
Description: as §1

[5] = system: NIH/3T3 fibroblast cells; test: MTT assay on non-malignant fibroblasts (selectivity); type: cell-based, murine; conditions: Mus musculus, NIH3T3, 72 h, read-out: Growth inhibition (%) ± SEM; for inhibition at 10 µM: NIH/3T3, 10 μM; for inhibition at 30 µM: NIH/3T3, 30 μM
Description: as §1

[6] = system: HeLa cells; test: MTT antiproliferative assay, HeLa; type: cell-based; conditions: Homo sapiens, 72 h, read-out: Growth inhibition (%) ± SEM
Description: as §1

SMILES | melting point [°C] | inhibition at 10 µM [1] [%] | inhibition at 30 µM [1] [%] | inhibition at 10 µM [2] [%] | inhibition at 30 µM [2] [%] | inhibition at 10 µM [3] [%] | inhibition at 30 µM [3] [%] | inhibition at 10 µM [4] [%] | inhibition at 30 µM [4] [%] | inhibition at 10 µM [5] [%] | inhibition at 30 µM [5] [%] | inhibition at 10 µM [6] [%] | inhibition at 30 µM [6] [%]
COC(=O)[C@]1(C)CCC[C@@]2(C)[C@@H]3CC[C@@]4(Cn5cc(-c6ccccc6)nn5)C[C@]3(CC[C@@H]21)C[C@H]4O [Compound 35, (4R,4aS,6aR,8R,9S,11aR,11bS)-Methyl 8-hydroxy-4,11b-dimethyl-9-((4-phenyl-1H-1,2,3-triazol-1-yl)methyl)tetradecahydro-6a,9-methanocyclohepta[a]naphthalene-4-carboxylate] | 154 to 156 | 70 ± 3.11 | 88.79 ± 0.44 | 43.2 ± 1.63 | 97.37 ± 0.38 | < 20 | 92.44 ± 0.59 | < 20 | 81.4 ± 2.84 | 54.8 ± 1.4 | 93 ± 1.01 | < 20 | 88.11 ± 0.75
COC(=O)[C@]1(C)CCC[C@@]2(C)[C@@H]3CC[C@@]4(Cn5cc(Cc6ccccc6)nn5)C[C@]3(CC[C@@H]21)CC4=O [Compound 34, (4R,4aS,6aR,9S,11aR,11bS)-Methyl 9-((4-benzyl-1H-1,2,3-triazol-1-yl)methyl)-4,11b-dimethyl-8-oxotetradecahydro-6a,9-methanocyclohepta[a]naphthalene-4-carboxylate] | 172 to 176 | 37.5 ± 2.1 | 81.3 ± 2.02 | 31.8 ± 1.6 | 89.59 ± 0.45 | < 20 | 50.1 ± 2.41 | < 20 | 58.8 ± 2.24 | < 20 | 72.5 ± 0.96 | < 20 | 75.2 ± 1.26
COC(=O)[C@]1(C)CCC[C@@]2(C)[C@@H]3CC[C@@]4(CN[C@@H](C)c5ccc6ccccc6c5)C[C@]3(CC[C@@H]21)C[C@H]4O [Compound 30, (4R,4aS,6aR,8R,9S,11aR,11bS)-Methyl 8-hydroxy-4,11b-dimethyl-9-((((S)-1-(naphthalen-2-yl)ethyl)amino)methyl)tetradecahydro-6a,9-methanocyclohepta[a]naphthalene-4-carboxylate] | 102 to 106 | 79.5 ± 1.01 | 95.63 ± 0.55 | 33.1 ± 1.23 | 99.71 ± 0.27 | 50.7 ± 3.21 | 98.7 ± 0.49 | < 20 | 101.4 ± 0.6 | 21.5 ± 0.48 | 100.7 ± 0.2 | 40.8 ± 0.99 | 94.51 ± 0.19

Now from value to molecule, other results behind:

melting point [°C] | SMILES | inhibition at 10 µM [1] [%] | inhibition at 30 µM [1] [%] | inhibition at 10 µM [2] [%] | inhibition at 30 µM [2] [%] | inhibition at 10 µM [3] [%] | inhibition at 30 µM [3] [%] | inhibition at 10 µM [4] [%] | inhibition at 30 µM [4] [%] | inhibition at 10 µM [5] [%] | inhibition at 30 µM [5] [%] | inhibition at 10 µM [6] [%] | inhibition at 30 µM [6] [%]
174 to 176 | CC[C@@H](N[C@@H]1C[C@]23CC[C@H]4[C@@](C)(CCC[C@@]4(C)C(=O)OC)[C@@H]2CC[C@@]1(CO)C3)c1ccccc1 [Compound 12, (4R,4aS,6aR,8R,9R,11aR,11bS)-Methyl 9-(hydroxymethyl)-4,11b-dimethyl-8-(((R)-1-phenylpropyl)amino)tetradecahydro-6a,9-methanocyclohepta[a]naphthalene-4-carboxylate] | 48.6 ± 0.5 | 92.3 ± 2.89 | 64.7 ± 1.95 | 98.32 ± 0.23 | < 20 | 91.6 ± 2.36 | < 20 | 82.4 ± 2.09 | 29.2 ± 1.33 | 95.53 ± 0.49 | < 20 | 90.8 ± 3.71
88 to 95 | CC[C@H](N[C@@H]1C[C@]23CC[C@H]4[C@@](C)(CCC[C@@]4(C)C(=O)OC)[C@@H]2CC[C@@]1(CO)C3)c1ccccc1 [Compound 11, (4R,4aS,6aR,8R,9R,11aR,11bS)-Methyl 9-(hydroxymethyl)-4,11b-dimethyl-8-(((S)-1-phenylpropyl)amino)tetradecahydro-6a,9-methanocyclohepta[a]naphthalene-4-carboxylate] | 49.5 ± 3.06 | 96.94 ± 0.57 | 74.2 ± 2.1 | 98.12 ± 0.3 | < 20 | 90.8 ± 1.35 | < 20 | 83.7 ± 3.19 | 22.2 ± 2.22 | 93.6 ± 2.02 | < 20 | 94.48 ± 0.84
